Assay results published in ChEMBL document CHEMBL1201862, “PubChem BioAssay data set” (2004).
Calls of active or inactive are those of the source.

Key:
[1] = target: Tyrosine-protein kinase receptor TYRO3 (Homo sapiens, UniProt Q06418); type: functional;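 note: TYRO3 value obtained as one member of a kinome-wide profiling panel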
[2] = target: Cyclin-dependent kinase 7 (Homo sapiens, UniProt P50613); type: functional;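 note: value comes from a kinome-wide kinase profiling panel in which CDK7 is one member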
Chain of Cyclin-dependent kinase 7 (P50613 whole entry): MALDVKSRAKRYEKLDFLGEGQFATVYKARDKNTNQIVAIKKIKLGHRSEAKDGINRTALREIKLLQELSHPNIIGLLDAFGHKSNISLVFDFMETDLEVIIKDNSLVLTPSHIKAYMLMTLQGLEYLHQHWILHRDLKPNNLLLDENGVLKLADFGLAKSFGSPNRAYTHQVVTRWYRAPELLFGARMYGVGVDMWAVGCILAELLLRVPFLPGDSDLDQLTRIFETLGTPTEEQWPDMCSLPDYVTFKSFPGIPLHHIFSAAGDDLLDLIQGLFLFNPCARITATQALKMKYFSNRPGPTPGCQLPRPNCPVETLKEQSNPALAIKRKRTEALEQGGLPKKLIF

[3] = target: Mitogen-activated protein kinase 10 (Homo sapiens, UniProt P53779); test: Navigating the Kinome. Panel member name: MAPK10; type: functional
Chain of Mitogen-activated protein kinase 10 (P53779 whole entry): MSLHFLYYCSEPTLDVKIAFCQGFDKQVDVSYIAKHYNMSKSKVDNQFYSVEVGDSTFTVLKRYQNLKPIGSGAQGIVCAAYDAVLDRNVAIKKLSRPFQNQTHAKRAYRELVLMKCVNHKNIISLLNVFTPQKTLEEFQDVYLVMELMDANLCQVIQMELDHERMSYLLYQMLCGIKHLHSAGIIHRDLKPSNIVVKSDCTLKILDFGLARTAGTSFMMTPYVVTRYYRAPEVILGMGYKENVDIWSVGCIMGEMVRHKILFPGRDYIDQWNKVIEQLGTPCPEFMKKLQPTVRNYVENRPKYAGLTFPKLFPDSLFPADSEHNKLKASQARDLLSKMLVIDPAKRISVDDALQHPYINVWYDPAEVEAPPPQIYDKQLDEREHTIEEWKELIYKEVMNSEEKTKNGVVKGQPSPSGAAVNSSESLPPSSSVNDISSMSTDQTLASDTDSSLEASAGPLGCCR

[4] = target: Dual specificity tyrosine-phosphorylation-regulated kinase 1A (Homo sapiens, UniProt Q13627); type: functional;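 note: measured against DYRK1A as one member of a broad kinome profiling panel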
[5] = target: Glycogen synthase kinase-3 beta (Homo sapiens, UniProt P49841); type: functional;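 note: value comes from a broad kinome profiling panel, with GSK3B as the panel member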
[6] = target: Focal adhesion kinase 1 (Homo sapiens, UniProt Q05397); type: functional;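 note: measured as one member of a kinome panel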
Chain of Focal adhesion kinase 1 (Q05397 whole entry): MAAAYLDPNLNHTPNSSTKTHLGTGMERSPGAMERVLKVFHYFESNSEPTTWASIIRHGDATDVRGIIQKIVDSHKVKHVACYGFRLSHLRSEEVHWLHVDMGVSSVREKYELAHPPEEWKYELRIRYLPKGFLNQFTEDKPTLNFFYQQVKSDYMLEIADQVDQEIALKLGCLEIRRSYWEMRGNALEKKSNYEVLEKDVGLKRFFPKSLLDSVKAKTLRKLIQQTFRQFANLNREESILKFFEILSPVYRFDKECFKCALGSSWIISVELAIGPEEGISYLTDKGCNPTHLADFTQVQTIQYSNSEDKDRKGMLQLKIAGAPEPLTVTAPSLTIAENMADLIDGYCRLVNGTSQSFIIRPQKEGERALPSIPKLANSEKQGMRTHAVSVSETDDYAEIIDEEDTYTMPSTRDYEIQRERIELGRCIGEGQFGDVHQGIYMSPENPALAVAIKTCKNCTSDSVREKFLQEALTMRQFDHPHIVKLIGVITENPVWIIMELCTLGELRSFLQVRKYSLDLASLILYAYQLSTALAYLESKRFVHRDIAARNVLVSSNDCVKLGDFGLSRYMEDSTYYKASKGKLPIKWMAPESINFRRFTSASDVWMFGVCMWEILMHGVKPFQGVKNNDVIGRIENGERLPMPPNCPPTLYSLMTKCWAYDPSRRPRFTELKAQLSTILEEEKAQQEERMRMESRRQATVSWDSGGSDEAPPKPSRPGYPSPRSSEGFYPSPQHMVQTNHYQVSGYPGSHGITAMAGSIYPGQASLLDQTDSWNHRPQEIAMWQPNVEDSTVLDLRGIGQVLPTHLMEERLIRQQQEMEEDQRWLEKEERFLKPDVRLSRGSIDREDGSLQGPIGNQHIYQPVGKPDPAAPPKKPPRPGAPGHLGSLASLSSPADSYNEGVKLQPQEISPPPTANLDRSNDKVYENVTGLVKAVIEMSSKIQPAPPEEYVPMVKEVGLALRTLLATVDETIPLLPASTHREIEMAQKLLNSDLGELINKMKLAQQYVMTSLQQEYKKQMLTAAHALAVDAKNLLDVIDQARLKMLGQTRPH

[7] = target: Rho-associated protein kinase 1 (Homo sapiens, UniProt Q13464); type: functional;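 note: measured within a broad kinome-wide panel profiling many kinases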
Chain of Rho-associated protein kinase 1 (Q13464 whole entry): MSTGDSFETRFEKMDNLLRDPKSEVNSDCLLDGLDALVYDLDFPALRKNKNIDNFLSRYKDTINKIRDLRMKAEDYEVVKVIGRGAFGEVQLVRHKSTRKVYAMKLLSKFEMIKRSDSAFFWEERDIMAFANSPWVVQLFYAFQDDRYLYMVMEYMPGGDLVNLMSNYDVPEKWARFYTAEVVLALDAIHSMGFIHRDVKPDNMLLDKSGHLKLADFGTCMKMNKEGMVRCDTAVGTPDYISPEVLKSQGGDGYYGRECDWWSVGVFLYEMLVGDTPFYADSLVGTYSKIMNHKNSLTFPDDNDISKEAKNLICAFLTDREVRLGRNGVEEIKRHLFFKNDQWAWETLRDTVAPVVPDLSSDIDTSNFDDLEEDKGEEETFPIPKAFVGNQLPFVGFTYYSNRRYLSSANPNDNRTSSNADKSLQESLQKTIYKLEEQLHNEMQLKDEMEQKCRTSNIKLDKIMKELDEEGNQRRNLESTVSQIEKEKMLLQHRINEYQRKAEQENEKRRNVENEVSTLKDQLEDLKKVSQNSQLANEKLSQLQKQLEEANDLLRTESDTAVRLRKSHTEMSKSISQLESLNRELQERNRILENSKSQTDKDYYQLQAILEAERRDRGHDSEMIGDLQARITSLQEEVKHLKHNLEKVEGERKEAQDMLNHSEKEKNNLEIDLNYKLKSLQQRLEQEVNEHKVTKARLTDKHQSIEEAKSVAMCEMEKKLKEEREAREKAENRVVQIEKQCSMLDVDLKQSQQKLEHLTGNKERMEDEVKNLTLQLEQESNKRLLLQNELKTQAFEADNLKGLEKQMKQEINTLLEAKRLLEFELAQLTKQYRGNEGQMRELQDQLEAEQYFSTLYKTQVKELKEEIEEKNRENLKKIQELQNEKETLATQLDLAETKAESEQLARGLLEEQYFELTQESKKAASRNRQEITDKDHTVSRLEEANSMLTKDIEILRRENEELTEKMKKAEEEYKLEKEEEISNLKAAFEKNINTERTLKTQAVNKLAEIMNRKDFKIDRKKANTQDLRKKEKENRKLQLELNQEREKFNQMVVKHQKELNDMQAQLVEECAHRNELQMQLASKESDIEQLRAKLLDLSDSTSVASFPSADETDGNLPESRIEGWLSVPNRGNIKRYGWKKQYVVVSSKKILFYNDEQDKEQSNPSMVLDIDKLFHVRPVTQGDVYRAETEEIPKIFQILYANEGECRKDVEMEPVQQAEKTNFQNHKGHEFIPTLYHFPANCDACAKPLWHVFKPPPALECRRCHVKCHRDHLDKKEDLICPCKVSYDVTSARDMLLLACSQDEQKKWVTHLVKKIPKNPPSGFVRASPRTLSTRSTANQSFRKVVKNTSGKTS

[8] = target: Dual specificity tyrosine-phosphorylation-regulated kinase 1B (Homo sapiens, UniProt Q9Y463); test: Navigating the Kinome. Panel member name: DYRK1B; type: functional
Chain of Dual specificity tyrosine-phosphorylation-regulated kinase 1B (Q9Y463 whole entry): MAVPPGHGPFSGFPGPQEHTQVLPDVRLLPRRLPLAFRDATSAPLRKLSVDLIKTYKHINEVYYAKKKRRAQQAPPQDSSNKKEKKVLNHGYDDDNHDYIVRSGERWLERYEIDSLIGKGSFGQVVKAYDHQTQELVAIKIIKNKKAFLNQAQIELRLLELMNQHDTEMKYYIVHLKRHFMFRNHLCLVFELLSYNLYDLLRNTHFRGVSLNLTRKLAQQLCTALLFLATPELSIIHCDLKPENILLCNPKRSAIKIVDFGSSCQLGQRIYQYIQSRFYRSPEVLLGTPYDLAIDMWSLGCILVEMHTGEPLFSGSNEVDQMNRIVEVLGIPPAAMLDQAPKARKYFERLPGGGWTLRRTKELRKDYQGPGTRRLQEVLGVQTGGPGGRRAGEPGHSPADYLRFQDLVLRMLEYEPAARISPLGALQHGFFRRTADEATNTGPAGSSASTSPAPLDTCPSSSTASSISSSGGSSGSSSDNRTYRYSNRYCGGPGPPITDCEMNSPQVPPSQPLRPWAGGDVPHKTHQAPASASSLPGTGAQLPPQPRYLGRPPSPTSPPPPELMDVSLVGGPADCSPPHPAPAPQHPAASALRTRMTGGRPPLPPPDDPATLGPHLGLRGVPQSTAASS

[9] = target: Cyclin-dependent kinase 9 (Homo sapiens, UniProt P50750); type: functional;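 note: value from the CDK9 entry of a kinome-spanning kinase panel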
Chain of Cyclin-dependent kinase 9 (P50750 whole entry): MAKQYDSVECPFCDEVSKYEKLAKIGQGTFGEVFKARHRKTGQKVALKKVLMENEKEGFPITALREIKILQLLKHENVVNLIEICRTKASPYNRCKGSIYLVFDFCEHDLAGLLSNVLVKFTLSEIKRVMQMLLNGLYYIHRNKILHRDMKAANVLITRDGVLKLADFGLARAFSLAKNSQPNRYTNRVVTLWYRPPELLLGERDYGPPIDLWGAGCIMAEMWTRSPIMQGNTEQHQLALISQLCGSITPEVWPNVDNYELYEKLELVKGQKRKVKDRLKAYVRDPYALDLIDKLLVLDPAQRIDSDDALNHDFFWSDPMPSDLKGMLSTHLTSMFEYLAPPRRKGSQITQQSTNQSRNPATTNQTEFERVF

[10] = Luminescence-based dose response cell-based high throughput screening assay for cytotoxic compounds using the IEC-6 intestinal epithelial cell line. [Related pubchem assays: 1858 (Summary AID.), 1825 (Counterscreen.), 1907 (Confirmation screen.)]; type: functional
[11] = cells; type: functional, cell-based
[12] = control 3'UTR Renilla luciferase suppression, dose response, counter-screen for Shn3 inhibitor project, cell-based, Clone20-Shn3RL, cherry-picked (AID 624133); type: functional
[13] = target: T1, Replicative DNA helicase DnaB (Mycobacterium tuberculosis, UniProt P9WMR3); test: DnaB intein splicing inhibitors, dose response, biochemical, cell-free fluorescence (AID 449749); type: functional
T1 sequence (P9WMR3 whole entry): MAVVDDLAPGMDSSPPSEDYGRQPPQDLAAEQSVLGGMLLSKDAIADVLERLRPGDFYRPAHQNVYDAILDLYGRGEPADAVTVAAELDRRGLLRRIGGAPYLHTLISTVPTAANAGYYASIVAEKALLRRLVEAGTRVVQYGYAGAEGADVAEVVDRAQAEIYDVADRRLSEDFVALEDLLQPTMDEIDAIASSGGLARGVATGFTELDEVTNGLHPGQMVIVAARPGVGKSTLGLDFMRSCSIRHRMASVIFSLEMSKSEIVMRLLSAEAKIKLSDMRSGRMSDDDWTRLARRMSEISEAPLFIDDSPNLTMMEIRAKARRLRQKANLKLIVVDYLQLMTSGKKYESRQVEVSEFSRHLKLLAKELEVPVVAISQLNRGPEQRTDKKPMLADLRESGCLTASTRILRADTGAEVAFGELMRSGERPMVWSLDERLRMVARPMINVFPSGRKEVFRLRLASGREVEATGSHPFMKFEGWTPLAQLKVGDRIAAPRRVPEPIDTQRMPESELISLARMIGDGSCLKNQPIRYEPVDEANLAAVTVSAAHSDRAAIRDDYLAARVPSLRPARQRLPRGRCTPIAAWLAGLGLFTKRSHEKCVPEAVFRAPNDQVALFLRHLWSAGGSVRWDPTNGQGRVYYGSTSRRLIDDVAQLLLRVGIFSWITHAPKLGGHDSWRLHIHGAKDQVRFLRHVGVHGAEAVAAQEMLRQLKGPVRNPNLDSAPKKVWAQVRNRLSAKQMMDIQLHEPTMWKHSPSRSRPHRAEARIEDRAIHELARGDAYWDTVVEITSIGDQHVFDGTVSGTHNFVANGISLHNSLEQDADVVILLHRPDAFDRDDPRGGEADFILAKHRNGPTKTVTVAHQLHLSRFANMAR

[14] = target: Paired box protein Pax-8 (Homo sapiens, UniProt Q06710); test: inhibitors of PAX8-driven TPO luciferase reporter, dose response, RMG-I cells, cherry-pick (AID 687027); type: functional, cell-based;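 note: luciferase reporter driven by Pax8 target thyroperoxidase promoter measured by SteadyGlo luminescence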
Chain of Paired box protein Pax-8 (Q06710 whole entry): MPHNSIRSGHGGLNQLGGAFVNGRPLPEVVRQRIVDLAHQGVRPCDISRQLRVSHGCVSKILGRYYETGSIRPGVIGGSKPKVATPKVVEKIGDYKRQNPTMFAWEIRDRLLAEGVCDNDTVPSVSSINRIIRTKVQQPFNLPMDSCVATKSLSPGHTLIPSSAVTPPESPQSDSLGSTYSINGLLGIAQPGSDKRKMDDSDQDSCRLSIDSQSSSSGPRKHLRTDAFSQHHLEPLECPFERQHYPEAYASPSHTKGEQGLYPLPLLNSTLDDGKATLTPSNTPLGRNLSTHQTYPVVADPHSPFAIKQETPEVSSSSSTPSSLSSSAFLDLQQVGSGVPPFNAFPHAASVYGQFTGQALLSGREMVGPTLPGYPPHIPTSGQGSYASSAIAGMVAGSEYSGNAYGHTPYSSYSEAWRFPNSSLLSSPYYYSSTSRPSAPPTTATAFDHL

[15] = target: T2, Histone-lysine N-methyltransferase NSD2 (Homo sapiens, UniProt O96028); type: biochemical
T2 sequence (O96028 whole entry): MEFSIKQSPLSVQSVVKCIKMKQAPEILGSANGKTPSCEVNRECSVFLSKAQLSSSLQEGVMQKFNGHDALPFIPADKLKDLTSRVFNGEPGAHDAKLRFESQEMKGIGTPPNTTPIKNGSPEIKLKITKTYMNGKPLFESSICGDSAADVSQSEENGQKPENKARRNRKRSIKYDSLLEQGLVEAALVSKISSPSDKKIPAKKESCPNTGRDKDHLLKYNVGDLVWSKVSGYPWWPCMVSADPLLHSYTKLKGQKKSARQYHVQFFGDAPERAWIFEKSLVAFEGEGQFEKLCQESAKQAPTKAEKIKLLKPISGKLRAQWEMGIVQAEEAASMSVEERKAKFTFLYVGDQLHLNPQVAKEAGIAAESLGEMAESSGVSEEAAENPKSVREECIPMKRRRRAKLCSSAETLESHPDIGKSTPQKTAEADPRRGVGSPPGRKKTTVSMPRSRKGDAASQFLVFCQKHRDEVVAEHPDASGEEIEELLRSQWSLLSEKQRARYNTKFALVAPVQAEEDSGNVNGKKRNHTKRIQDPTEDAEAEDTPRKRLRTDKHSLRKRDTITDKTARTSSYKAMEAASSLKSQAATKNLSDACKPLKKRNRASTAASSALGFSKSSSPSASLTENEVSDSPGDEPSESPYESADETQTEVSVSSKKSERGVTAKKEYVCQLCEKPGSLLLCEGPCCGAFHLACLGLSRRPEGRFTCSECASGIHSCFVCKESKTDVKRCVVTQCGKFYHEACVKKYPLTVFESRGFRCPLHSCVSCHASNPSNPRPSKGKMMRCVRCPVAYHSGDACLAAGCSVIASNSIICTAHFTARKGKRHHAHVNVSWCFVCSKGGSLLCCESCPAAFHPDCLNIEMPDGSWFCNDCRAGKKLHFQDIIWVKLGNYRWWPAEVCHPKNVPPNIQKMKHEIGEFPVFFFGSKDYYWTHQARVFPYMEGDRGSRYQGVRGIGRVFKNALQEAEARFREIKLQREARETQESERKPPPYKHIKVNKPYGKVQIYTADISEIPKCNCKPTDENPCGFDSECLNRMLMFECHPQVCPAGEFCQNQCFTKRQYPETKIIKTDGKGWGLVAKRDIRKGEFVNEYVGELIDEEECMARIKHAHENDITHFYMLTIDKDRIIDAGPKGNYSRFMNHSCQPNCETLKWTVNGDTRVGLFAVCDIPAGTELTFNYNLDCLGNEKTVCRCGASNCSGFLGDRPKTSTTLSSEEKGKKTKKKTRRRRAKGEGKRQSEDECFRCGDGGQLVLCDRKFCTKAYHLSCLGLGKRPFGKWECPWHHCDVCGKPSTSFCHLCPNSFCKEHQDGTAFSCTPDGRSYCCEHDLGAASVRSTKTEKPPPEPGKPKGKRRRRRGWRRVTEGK
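Throughout, for EC50: proteasome chymotrypsin-like activity measured in U2OS cells; potency is for inhibition of proteasome activity.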
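Throughout, for IC50: cell viability measured after two days of compound exposure.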

Structure (SMILES): O=C1NC(=O)C(c2c[nH]c3ccccc23)=C1c1nc(N2CCNCC2)nc2ccccc12
- Ki [1]: > 2 µM (inactive)
- Ki [2]: 1.26 µM (active)
- Ki [3]: > 3.16 µM (inactive)
- Ki [4]: > 2 µM (inactive)
- Ki [5]: > 3.98 µM (inactive)
- Ki [6]: 2 µM (active)
- Ki [7]: > 2 µM (inactive)
- Ki [8]: > 2 µM (inactive)
- Ki [9]: 316 nM (active)

Structure (SMILES): CCCC(=O)NC(c1ccc(N(C)C)cc1)c1ccc2cccnc2c1O (stereo not given)
- IC50 [10]: 1.55 µM (active)
- EC50 [11]: > 350 µM (not active)
- AC50 [12]: 745 nM (active)

Structure (SMILES): O=C(NC1=C(NC2CCS(=O)(=O)C2)C(=O)c2ccccc2C1=O)c1ccccc1 (stereo not given)
- AC50 [13]: 816 nM (active)
- AC50 [14]: 6.4 µM (active)
- AC50 [15]: > 20 µM (inactive)
